Values quoted from earlier work, collected in patent publication US7324926B2, “Methods for predicting chemosensitivity or chemoresistance” (Whitehead Institute for Biomedical Research, priority 1999, dated 2008).

Key:
[1] = tested on: central nervous system (CNS) cell lines; conditions: CNS cell lines of the NCI-60 panel; sensitive = log10(GI50) at least 0.8 SD below the mean
[2] = tested on: ovarian cancer cell lines; conditions: ovarian cancer cell lines of the NCI-60 panel; resistant = log10(GI50) at least 0.8 SD above the mean

C=C1[C@@H](C)[C@H]2[C@H](Cc3ccccc3)NC(=O)[C@]23[C@H](OC(C)=O)/C=C/[C@@](C)(O)C(=O)[C@@H](C)C/C=C/[C@H]3[C@@H]1O [cytochalasin D, Cytochalasin D]
cytochalasin D sensitivity class of cell lines (from GI50) [1]: sensitive
cytochalasin D sensitivity class of cell lines (from GI50) [2]: resistant
